# Experimental data taken from patent US20100152129A1 (priority 2008, published 2010).
# Test system: Panc-1 cell line
# Assay: Gene expression profile using RTQ-PCR
# Assay type: cell-based
# Conditions: Panc1, RTQ-PCR
# Protocol: The objective of the experiment was to evaluate the synergistic effect of drug combination (Gemcitabine with […]) as compared to individual use of the same. The synergistic effect of the compound or drug combination in the Panc-1 cell line was measured in terms of gene expression and expressed as fold changes as compared to the cell control with no drug treatment. Methodology: Cell lines treated with drugs (Gemcitabine, […] or both) were used for total RNA isolation using a commercial RNA extraction kit (Qiagen Corporation, Germany). […] This was followed by real time quantitative polymerase chain reaction (RTQ PCR) using gene specific primers and standard thermal program of initial denaturation at 95° C. for 5 mins and 40 cycles of 95° C. for 10 seconds, followed by […] for 30 seconds (Realplex PCR machine from Eppendorf, Germany). Quantitative measurement of products made during PCR cycles was normalized against a housekeeping gene (Actin) and used to measure the gene expression as fold changes as compared to respective control (FIG. 5).
SMILES,CDK2 gene expression vs control cells with no drug treatment [log 2 fold ratio],CDK4 gene expression vs control cells with no drug treatment [log 2 fold ratio],CDK6 gene expression vs control cells with no drug treatment [log 2 fold ratio],CDK8 gene expression vs control cells with no drug treatment [log 2 fold ratio],DDIT4 gene expression vs control cells with no drug treatment [log 2 fold ratio],RRM1 gene expression vs control cells with no drug treatment [log 2 fold ratio],p14 gene expression vs control cells with no drug treatment [log 2 fold ratio],p18 gene expression vs control cells with no drug treatment [log 2 fold ratio],p27 gene expression vs control cells with no drug treatment [log 2 fold ratio],RRM2 gene expression vs control cells with no drug treatment [log 2 fold ratio]
Nc1ccn([C@@H]2O[C@H](CO)[C@@H](O)C2(F)F)c(=O)n1 [drawing 10],0.50,−0.93,−0.53,0.86,1.01,0.25,−0.17,1.06,−0.16,–
CN1CC[C@@H](c2c(O)cc(O)c3c(=O)cc(-c4ccc(C(F)(F)F)cc4Cl)oc23)[C@@H]1CO.Cl [drawing 12],0.96,0.73,1.48,0.20,−0.31,−0.24,−0.59,−0.12,−0.30,0.04
CN1CCC(c2c(O)cc(O)c3c(=O)cc(-c4ccccc4Cl)oc23)C(O)C1 (stereo not drawn) [drawing 14],0.74,0.49,1.31,−0.99,−4.21,0.03,−0.10,−1.14,−0.01,0.38
CN1CC[C@@H](c2c(O)cc(O)c3c(=O)cc(-c4ccccc4Cl)oc23)[C@@H]1CO.Cl,−0.21,−0.44,−0.23,0.11,−1.88,0.18,−0.50,−0.17,−0.60,0.16
CC[C@H](CO)Nc1nc(NCc2ccccc2)c2ncn(C(C)C)c2n1 [drawing 11],0.29,−0.06,0.75,0.82,−0.84,0.11,−0.05,0.56,−0.04,0.63

# Same assay, conditions: Panc1, RTQ-PCR
SMILES,DLG5 gene expression vs control cells with no drug treatment [log 2 fold ratio],E2F1 gene expression vs control cells with no drug treatment [log 2 fold ratio],MAPK1 gene expression vs control cells with no drug treatment [log 2 fold ratio],PDCD2 gene expression vs control cells with no drug treatment [log 2 fold ratio],POLB gene expression vs control cells with no drug treatment [log 2 fold ratio],PTK7 gene expression vs control cells with no drug treatment [log 2 fold ratio],PTN gene expression vs control cells with no drug treatment [log 2 fold ratio],RASA1 gene expression vs control cells with no drug treatment [log 2 fold ratio],REV3L gene expression vs control cells with no drug treatment [log 2 fold ratio],SSTR2 gene expression vs control cells with no drug treatment [log 2 fold ratio]
CC[C@H](CO)Nc1nc(NCc2ccccc2)c2ncn(C(C)C)c2n1 [drawing 2],−0.71,0.03,−0.29,−0.05,−0.26,0.11,−0.28,−0.41,−0.27,−0.37
Nc1ccn([C@@H]2O[C@H](CO)[C@@H](O)C2(F)F)c(=O)n1 [drawing 1],−0.53,0.98,−0.18,−1.27,−0.94,−0.53,0.68,−0.04,−0.28,−1.17
CN1CCC(c2c(O)cc(O)c3c(=O)cc(-c4ccccc4Cl)oc23)C(O)C1 (stereo not drawn) [drawing 5],−1.19,−0.62,−2.31,0.50,0.34,0.16,−0.24,−1.10,−1.42,−2.98
CN1CC[C@@H](c2c(O)cc(O)c3c(=O)cc(-c4ccc(C(F)(F)F)cc4Cl)oc23)[C@@H]1CO.Cl [drawing 3],−1.01,−0.43,0.64,0.77,−0.05,0.30,0.40,0.10,−0.13,−0.69

# Same assay, conditions: Panc1, RTQ-PCR
row,SMILES,STAT4 gene expression vs control cells with no drug treatment [log 2 fold ratio]
1,CC[C@H](CO)Nc1nc(NCc2ccccc2)c2ncn(C(C)C)c2n1 [drawing 2],−1.66
2,Nc1ccn([C@@H]2O[C@H](CO)[C@@H](O)C2(F)F)c(=O)n1 [drawing 1],−0.54
3,CN1CCC(c2c(O)cc(O)c3c(=O)cc(-c4ccccc4Cl)oc23)C(O)C1 (stereo not drawn) [drawing 5],−1.39
4,CN1CC[C@@H](c2c(O)cc(O)c3c(=O)cc(-c4ccc(C(F)(F)F)cc4Cl)oc23)[C@@H]1CO.Cl [drawing 3],−1.52
